Results on five compounds are retold here after patent US12410064B2, “Preparation of soluble compounds” (EXCITON PHARMA CORP., priority 2019, dated 2025).

Values joined by “and” are separate entries in the source; they are usually repeats but may differ in a detail not shown here. Identical values can stand only once.

In data set [1] the test system is Staphylococcus aureus biofilms. Description: S. aureus antibiofilm assay (log-reduction vs no treatment control). The format is cell-based.
Method: Briefly, S. aureus biofilms were grown on sterile gauze at 37° C. for 72 hours (gauze was re-inoculated with S. aureus at 24 hours and 48 hours). After incubation, the gauze was rinsed with sterile water and placed onto Mueller Hinton agar (MHA) plates. The compound was dissolved in aqueous (RO water) solution at a concentration of 0.4 mg Ag/cm^2 or 10 mg Ag per 5×5 cm testing and placed on top of the gauze. The plates were incubated for 6 hours at 37° C. The remaining solution containing metal complexes was removed from the biofilm and the biofilm/gauze was neutralized in 10 mL of sodium thioglycolate. The bacteria were agitated to remove them from the gauze and the resulting bacterial suspensions were diluted and spread onto MHA plates which were incubated for 18-24 hours at 37° C. and the resulting viable bacterial colonies were enumerated. The log-reduction of S. aureus was calculated relative to the reduction achieved in the “no treatment” negative control samples. Results represent the average of triplicate data. The assay was repeated upon the aged solid state at a shelf life of 5 months (FIGS. 4A-B).
Data set [2] can be described thus: Acid-base titration curve (equivalence points). The format is physicochemical. The settings on record: FIG. 1, inflection points of the curve; listed as JN300118-1. The text has this:
In the various embodiments, sufficient concentrations of the acid or base to transform the first oxidized metal complex into the desired second oxidized metal complex may be determined using acid-base titration. As used herein, the term “acid-base titration” refers to a method of quantitative analysis for determining the concentration of an acid or base by exactly neutralizing it with a standard solution of base or acid having known concentration. A pH indicator may be used to monitor the progress of the acid-base reaction. An acid-base titration curve may be plotted on a graph to show the changes in the pH upon addition of acid or base. As shown for example in FIG. 1, the curve falls near equivalence points (inflection points of the curve). The quantity of acid or base required to reach each equivalence point (e.g., FIG. 1, pH 11.3, 5.7) may be identified from the graph.
At each equivalence point or corresponding pH, the first oxidized metal complex may be transformed into a different second oxidized metal complex. […]

The nature of data set [3]: Solid state stability under ambient conditions, analysed by UV-Vis spectroscopy. The format is physicochemical. The settings on record: room temperature, ambient air and light, five months. The procedure: Stability evaluation of each compound in its solid state stored under ambient conditions was performed.
Setting [4] is: S. aureus biofilm on gauze, 0.4 mg Ag/cm^2 in RO water, 6 hours at 37° C.

In the case of “Sodium diperiodatoargentate Na5Ag(IO5OH)216H2O [JN091118-2, reference compound]”, in data set [1] (S. aureus biofilm as Example 2, but semi-solid formulation (about 0.083 g) dissolved into RO water (1 mL), 0.4 mg Ag/cm^2), the antimicrobial activity result was “Atkinson, antimicrobial activity, yield”.

For the compound K5-3H0-2Ag(IO5OH)2 [JN150618-3], the antimicrobial activity entry in data set [1] (setting [4]) was “bright red crystals, antimicrobial activity”.

Take K4-1H1-4Ag(IO5OH)2O [JN301118-1]: the “equivalence point of acid-base titration curve” value in data set [2] is 11.3 pH and 5.7 pH.

Regarding “diperiodatoargentate potassium salt [JN300518-2a]”, the solid state stability result in data set [3] is recorded as “bright red crystals, solid state stability,”.

As to `[Ag+].[Ag+].[Ag+].[Ag+].[Ag+].[O-][I+]([O-])([O-])([O-])([O-])[O-]` [JN111018-3, Pentasilver periodate, reference compound], the antimicrobial activity entry in data set [1] (setting [4]) is listed as “antimicrobial activity, yield”.
